Entries after “also recorded” stand apart in the source; their conditions may differ.
Experiments:
[1] = tested on: B. subtilis biofilms; assay: B. subtilis biofilm stability / maintenance in vitro; format: cell-based; conditions: in vitro and in vivo, specific environmental conditions such as iron starvation
Protocol: Shown are biofilms of treated and untreated B. subtilis biofilms.
Strains and Media All experiments were performed with B. subtilis NCBI3610 and its derivatives. Assays were carried out with the biofilm-inducing medium, MSgg: 5 mM potassium phosphate, 100 mM MOPS (pH 7), 2 mM MgCl2, 50 μM MnCl2, 1 μM ZnCl2, 2 μM thiamine, 0.5% glycerol, 0.5% glutamate, 50 μg/ml tryptophan, 50 μg/mlphenylalanine 50 μg/ml threonine, 700 μM CaCl2, and 50 μM (for growth assays) or 125 μM (for biofilm assays) FeCl3^1. A solid MSgg medium was obtained by adding Bacto agar (Difco) to a final concentration of 1.5%. When necessary, selective medium was prepared with LB-agar or LB broth, supplemented with: 100 μg/ml ampicillin (amp) (AG Scientific), or 10 μg/ml kanamycin (kan) (AG Scientific), or 10 μg/ml chloramphenicol (cam) (Amresco), or 10 μg/ml tetracycline (tet) (Amresco), or 100 μg/ml spectinomycin (spec) (Tivan Biotech), or 1 μg/mlerythromycin (erm) (Amresco)+25 μg/ml lincomycin (linc) (Sigma Aldrich).

[2] = tested on: P. syringae strain DC3000 pv tomato; assay: Bioprotection of tomato plants by B. subtilis against pseudomonas syringae; format: in vivo; conditions: 5 μM RID with 1000 B. subtilis cells; 100 or 10,000 pathogen cells
Protocol: FIGS. 18A-18B: Purified RID improved the bioprotection versus pseudomonas syringae achieved by Bacillus. Bacillus strain B. subtilis 3610 (B.S) was used. The bacterial strain was maintained on LB plates. 1000 cells either applied or non-applied with 5 μM of RID were added to tomato plants grown on agrophonic beads. Plants were incubated at 28±2° C. for 15 days. P. syringae strain DC3000 pv tomato (P.S) culture was grown in LB at 37° C. to OD600=0.2 to 0.3 (3*10^8 cells per ml) and diluted to 100 cells (FIG. 18A) 10,000 (FIG. 18B) cells retrospectively (w/v) into the plant media. Plants were further incubated at 28±2° C. for 10 days and the growth of the pathogen was measured and compared with the control. Three replications were maintained for each assay. SD represents the average of three independent experiments.
Bacillus strain B. subtilis 3610 (B.S) was maintained on LB plates. 1000 cells of B.S. with or without the addition of 5 μM of RID were added to tomato plants grown on agrophonic beads. Plants were incubated at 28±2° C. for 15 days.
P. syringae strain DC3000 pv tomato (P.S) was grown in LB at 37° C. to OD600=0.2 to 0.3 (3*10^8 cells per ml) and diluted to 10,000 cells retrospectively (w/v) into the plant media. Plants were further incubated at 28±2° C. for 10 days and the growth ofthe pathogen was measured and compared with the control. […]

[3] = tested on: rhyzoctonia solani; assay: Bioprotection of tomato plants by B. subtilis against rhyzoctonia solani; format: in vivo; conditions: RID with B. subtilis
Protocol: ISR assay. Arabidopsis thaliana or Microtome tomato seedlings were grown on NITCH-agar for 10 days. Then each seedling was transferred to separate solid MSgg plate. In order to test the effects of either treated or untreated B. subtilis on the Induced systemic resistance (ISR), bacterial cells were inoculated aside to the root (as mentioned above) and incubated at 23° C. for five days. Alternatively and as indicated in the corresponding figure legend, we inoculated the bacterial cells directly on the root. Then the first leaf was infected by puncturing by needle and inoculating with the necrosis-causing pathogens, Pseudomonas syringae DC3000 or rhyzoctonia solani (Kuhn). Five days after infection with P. syringae, plants were further analyzed.
Tomato infections (FIGS. 18A, 18B and 19).

[4] = tested on: P. syringae; assay: Bioprotection of Arabidopsis thaliana by B. subtilis against pseudomonas syringae; format: in vivo; conditions: 5 μM purified RID with 1000 B. subtilis cells, 100 or 10,000 pathogen cells
Protocol: (§1) FIG. 19: Purified RID improved the bioprotection versus pseudomonas syringae and rhyzoctonia solani achieved by Bacillus. We used Bacillus strain B. subtilis 3610 (B.S). The bacterial strain was maintained on LB plates. 1000 cells either applied or non-applied with 5 μM of purified RID were added to Arabidopsis thaliana plants grown on MS solid media. Plants were incubated at 26±2° C. for 5 days. P. syringae (P.S) or R. solani (R.S) were grown in TSB at 37° C. to OD600=0.2 to 0.3 (3*10^8 cells per ml) and diluted to 100 cells, or 10,000 cells retrospectively (w/v) into the plant media. Plants were further incubated at 28±2° C. for 5 days and the growth of the pathogen was measured and compared with the control. Three replications were maintained for each assay. SD represents the average of three independent experiments.
(§2) Bacillus strain B. subtilis 3610 (B.S) was maintained on LB plates. 1000 cells with or without 5 μM of purified RID were added to Arabidopsis thaliana plants grown on MS solid media. Plants were incubated at 26±2° C. for 5 days. P. syringae (P.S) or R. solani (R.S) were grown in TSB at 37° C. to OD600=0.2 to 0.3 (3*10^8 cells per ml) and diluted to 100 cells, or 10,000 cells retrospectively (w/v) into the plant media. Plants were further incubated at 28±2° C. for 5 days and the growth of the pathogen was measured and compared with the control. […]

[5] = tested on: R. solani; assay: Bioprotection of Arabidopsis thaliana by B. subtilis against rhyzoctonia solani; format: in vivo; conditions: 5 μM purified RID with 1000 B. subtilis cells, 100 or 10,000 pathogen cells
Protocol: as §1, §2

[6] = tested on: B. subtilis 3610 Δ yclQ mutant biofilms; assay: Biofilm (pellicle) development of B. subtilis strain defective in iron uptake; format: cell-based; conditions: Δ yclQ mutant pellicles with or without purified RID
Excerpt: Biofilms grown in the presence and absence of RID in B. subtilis 3610 and its derivate (Δ yclQ) mutant in iron uptake pathways (Zawadzka et al., 2009). Untreated pellicles are shown in the top panel. Pellicles applied with purified RID are shown below.

NCCCCNC(=O)/C=C/c1ccc(O)c(O)c1 [RID, caffeoyl putrescine]
disassembly of B. subtilis biofilms [1]: blocks the disassembly of B. subtilis biofilms in vitro and in vivo | B. subtilis-mediated protection of tomato plants from pseudomonas syringae pv. Tomato [2]: enhanced the protective effects of Bacillus subtilis on tomato plant mortality; also recorded: improved significantly the duration of protection achieved by Bacillus subtilis and the resistance to high inoculum of infection | B. subtilis-mediated protection of tomato plants from rhyzoctonia solani [3]: enhanced the protective effects of Bacillus subtilis on tomato plant mortality | B. subtilis-mediated protection of Arabidopsis (Brassicaceae) from pseudomonas syringae [4]: improved significantly protection achieved by Bacillus subtilis | B. subtilis-mediated protection of Arabidopsis (Brassicaceae) from pseudomonas syringae ([4]; listed as purified RID): significantly improve the protection of Brassicaceae plants | B. subtilis-mediated protection of Arabidopsis (Brassicaceae) from rhyzoctonia solani [5]: improved significantly protection achieved by Bacillus subtilis | B. subtilis-mediated protection of Arabidopsis (Brassicaceae) from rhyzoctonia solani ([5]; listed as purified RID): significantly improve the protection of Brassicaceae plants | biofilm development of iron-uptake defective B. subtilis [6]: compensated for the biofilm defect; also recorded: can promote the development of biofilms
